Tests used:
PDE4A = assay: Semi-quantitative RT-PCR of PDE4A expression in treated human cell lines; assay type: cell-based; conditions: control normalized to 1
Protocol: (§1) RNA was purified using Tripure™ Isolation Reagent, a single-step liquid phase separation issued from the total RNA isolation method developed by Chomczynski and Sacchi (1987). Washed and pelleted cells were resuspended at a concentration of 1×10^6 cells/ml Tripure and the total RNA extracted was quantified spectrophotometrically. RT-PCR was carried out using the commercial PCR ELISA Dig Labelling Kit. First strand cDNA was generated from 1 μg of total RNA per sample using random hexamers to prime the reverse transcription (First Strand cDNA Synthesis Kit for RT-PCR) and was directly amplified by PCR following the addition of specific primer pairs. Oligonucleotide primers were: PDE4A, 5′-[…]-3′ (SEQ ID N^o1) and 5′-[…]-3′ (SEQ ID N^o2), defining a 439-bp product; PDE4B, 5′-[…]-3′ and 5′-[…]-3′, defining a 327-bp product; PDE4C, 5′-[…]-3′ and 5′-[…]-3′ defining a 331-bp product; PDE4D, 5′-[…]-3′ and 5′-[…]-3′, defining a 339-bp product. The 5′-biotin-labelled capture probes used for the detection of PCR fragments were: 5′-[…]-3′ for PDE4A, 5′-[…]-3′ for PDE4B, 5′-[…]-3′ for PDE4C, 5′-[…]-3′ for PDE4D. Briefly, this PCR ELISA allows the specific detection of PCR products in a semi-quantitative microtiter plate format. The PCR products are labelled with digoxigenin during the amplification process (dig labelling). The labelled PCR products are analyzed by solution hybridization to a specific capture probe that is complementary to the inner part of the amplification product (dig detection). This capture probe is labelled with biotin to allow immobilization of the hybrid to a streptavidin coated microtiterplate surface. Unspecific amplification products will not hybridized to this capture probe and thus will be removed during the following washing steps; The bound hybrid is detected by an anti-digoxigenin peroxidase conjugate and by use of the calorimetric substrate ABTS. In comparison with suitable standards the color signal can be used for semi-quantitative evaluation of an amplification reaction. In our experiments the PDE4 subtypes PCR fragments amplified in the control cells (cells non treated with any of the compound tested), were our standards and the optical densities found for these PCR-fragments were normalized to 1.
(§2) All the cell lines used in this study were obtained from the European Collection of Cell Culture (ECACC). U-937, HT-29, HL-60, Jurkat, MOLT-4, HK-293, CACO2 were grown in RPMI 1640 medium supplemented with 10% (v/v) heat-inactivated calf serum at 37° C. in an humidified atmosphere of 95% air-5% CO2. […] Cells in suspension were seeded at 10^6 cells/ml and adherent ones were used when confluent. After the required incubation times, 10^6 cells were used for mRNA extraction and 2.5×10^8 for proteins extraction.
(§3) The control cells received 1% DMSO for 2 hours or 3 days. After treated, the cells were washed and prepared for mRNA extraction as described in the Materials and Methods section. PCR fragments were quantified by semi-quantitative PCR: The expression of the subtypes in control cells was normalized to 1 to allow expression of the data found in the treated cells as an x-fold increase or decrease expression of each subtype in comparison to the control value.
(§4) The expression of the subtypes in control cells was normalized to 1 to be able to express the data found in the treated cells as an x-fold increase or decrease expression of each subtype in comparison to the control value. The results obtained are summarised in table 2 and here again, none of the treatment used was able to induce the expression of a C subtype.

PDE4B = assay: Semi-quantitative RT-PCR of PDE4B expression in treated human cell lines; assay type: cell-based; conditions: control normalized to 1
Protocol: as §1, §2, §3, §4

PDE4D = assay: Semi-quantitative RT-PCR of PDE4D expression in treated human cell lines; assay type: cell-based; conditions: control normalized to 1
Protocol: as §1, §2, §3, §4

PDE 4D3 = assay: Semi-quantitative RT-PCR of PDE4D3 expression in treated human cell lines; assay type: cell-based; conditions: control normalized to 1
Protocol: as §1, §2, §3, §4

PDE4 = assay: Chromatographic resolution and assay of PDE activities in control and PMA-treated cells; assay type: cell-based, human; conditions: HL-60 cells treated with 1 μM PMA for 72 hours; control cells 0.14
Protocol: as §2
The adherent cells were disrupted by trypsinisation and along with the non-adherent cells were washed carefully at least twice with sterile PBS and counted. […]
Phosphodiesterase activities were assayed using a modification of the method described by Smith et al. (1993) utilizing the observation that 5′-nucleotides bind very strongly to alumina while the cyclic nucleotides are readily eluted at neutral or slightly alkaline pH. […] The separated [^3H]cAMP was back-corrected for recovery using the separated and non-separated ^14C values and expressed as a fraction of the total [^3H]cAMP to give the amount of substrate hydrolyzed.
These studies were conducted originally to set up PDE4 subtype cellular assays, for this reason the cell lines that were expressing either a single or majority of a single subtype after the different treatments, were analysed for their phosphodiesterase activities. […]

| Structure (SMILES) | PDE4 subtype A x-fold change in expression vs control (number in brackets) (PDE4A; CACO-2 cells) [fold] | PDE4 subtype A x-fold change in expression vs control (number in brackets) (PDE4A; HK-293 cells) [fold] | PDE4 subtype A x-fold change in expression vs control (number in brackets) (PDE4A; HT-29 cells) [fold] | PDE4 subtype A x-fold change in expression vs control (number in brackets) (PDE4A; Jurkat cells) [fold] | PDE4 subtype A x-fold change in expression vs control (number in brackets) (PDE4A; Molt-4 cells) [fold] | PDE4 subtype B x-fold change in expression vs control (number in brackets) (PDE4B; HK-293 cells) [fold] | PDE4 subtype B x-fold change in expression vs control (number in brackets) (PDE4B; HL-60 cells) [fold] | PDE4 subtype B x-fold change in expression vs control (number in brackets) (PDE4B; Jurkat cells) [fold] | PDE4 subtype B x-fold change in expression vs control (number in brackets) (PDE4B; Molt-4 cells) [fold] | PDE4 subtype D x-fold change in expression vs control (number in brackets) (PDE4D; HL-60 cells) [fold] | PDE4 subtype D x-fold change in expression vs control (number in brackets) (PDE4D; HT-29 cells) [fold] | PDE4 subtype D x-fold change in expression vs control (number in brackets) (PDE4D; Jurkat cells) [fold] | PDE4 subtype D x-fold change in expression vs control (number in brackets) (PDE4D; Molt-4 cells) [fold] | PDE4 D3 x-fold change in expression vs control (number in brackets) (PDE 4D3; CACO-2 cells) [fold] | PDE4 D3 x-fold change in expression vs control (number in brackets) (PDE 4D3; HK-293 cells) [fold] | PDE4 D3 x-fold change in expression vs control (number in brackets) (PDE 4D3; HT-29 cells) [fold] | other results |
| --- | --- | --- | --- | --- | --- | --- | --- | --- | --- | --- | --- | --- | --- | --- | --- | --- | --- |
| C[C@@H]1C[C@H]2[C@@H]3CCC4=CC(=O)C=C[C@]4(C)[C@@]3(F)[C@@H](O)C[C@]2(C)[C@@]1(O)C(=O)CO [Dexamethasone, dexamethasone] | 1 | 1 | 1 | 1 | 2 | −1.5 | −1.2 | 1 | 1 | 1 | 1 | 1 | 1.1 | 1 | 1 | 1 | PDE4 subtype A x-fold change in expression vs control (number in brackets) (PDE4A; HL-60 cells): 1 fold; PDE4 subtype A x-fold change in expression vs control (number in brackets) (PDE4A; Molt-4 cells, listed as dexamethasone): +2 fold; PDE4 subtype D x-fold change in expression vs control (number in brackets) (PDE4D; CACO-2 cells): 1 fold; PDE4 subtype D x-fold change in expression vs control (number in brackets) (PDE4D; HK-293 cells): 1 fold; PDE4 D3 x-fold change in expression vs control (number in brackets) (PDE 4D3; HL-60 cells): 1 fold |
| CCCCCCCCCCCCCC(=O)O[C@@H]1[C@@H](C)[C@@]2(O)[C@@H](C=C(CO)C[C@]3(O)C(=O)C(C)=C[C@@H]23)[C@@H]2C(C)(C)[C@]12OC(C)=O [PMA, phorbol myristate acetate] | 1 | 1 | 1.5 | 1 | −1.5 | 1 | −12.2 | −2 | 1 | −14.5 | 1.8 | −1.9 | 1.1 | −1.1 | 1 | 1 | maximum PDE4 activity (PDE4): 0.9 pmol AMP formed/min/μl |

— US6635436B2, “Methods for the screening of non-recombinant cell lines capable of expressing a single PDE4 isoenzyme and for the screening of PDE4 inhibitors” (Warner-Lambert Company, priority 1999, dated 2003)
